# Assay results from PubChem BioAssay AID1259407 (Chemical Carcinogenesis Research Information System (CCRIS), 2018).
# The source made the active and inactive calls. How the calls were made is not given here.
# Tested on: CCRIS mutagenicity, Ames/micronucleus/aberration tests
# Assay: CCRIS mutagenicity studies
# [1] = Test System: AMES SALMONELLA TYPHIMURIUM, Strain/Indicator: TA98, Metabolic Activation: HAMSTER, LIVER, S-9, AROCLOR 1254 (30%), Method: PREINCUBATION
# [2] = Test System: AMES SALMONELLA TYPHIMURIUM, Strain/Indicator: TA98, Metabolic Activation: NONE, Method: PREINCUBATION
# [3] = Test System: AMES SALMONELLA TYPHIMURIUM, Strain/Indicator: TA100, Metabolic Activation: NONE, Method: PREINCUBATION
# [4] = Test System: AMES SALMONELLA TYPHIMURIUM, Strain/Indicator: TA1535, Metabolic Activation: NONE, Method: PREINCUBATION
structure (smiles),measurement,setting,value
CCN(CC)CCNc1ccc(CO)c2sc3ccccc3c(=O)c12,mutagenic call,[1],active; positive
same,mutagenic call,[2],active; positive
same,mutagenic call,"Test System: AMES SALMONELLA TYPHIMURIUM, Strain/Indicator: TA98, Metabolic Activation: NONE, Method: STANDARD PLATE",active; positive
same,mutagenic call,"Test System: AMES SALMONELLA TYPHIMURIUM, Strain/Indicator: TA98, Metabolic Activation: RAT, LIVER, S-9, AROCLOR 1254 (30%), Method: PREINCUBATION",active; positive
same,mutagenic call,"Test System: AMES SALMONELLA TYPHIMURIUM, Strain/Indicator: TA98, Metabolic Activation: RAT, LIVER, S-9, AROCLOR 1254 OR PHENOBARBITOL, Method: STANDARD PLATE",active; positive
same,mutagenic call,"Test System: AMES SALMONELLA TYPHIMURIUM, Strain/Indicator: TA98, Metabolic Activation: RAT, LIVER, S-9, KC500 OR PHENOBARBITAL, Method: LIQUID SUSPENSION",active; positive
same,mutagenic call,"Test System: AMES SALMONELLA TYPHIMURIUM, Strain/Indicator: TA100, Metabolic Activation: HAMSTER, LIVER, S-9, AROCLOR 1254 (30%), Method: PREINCUBATION",active; positive
same,mutagenic call,[3],active; positive
same,mutagenic call,"Test System: AMES SALMONELLA TYPHIMURIUM, Strain/Indicator: TA100, Metabolic Activation: NONE, Method: STANDARD PLATE",active; positive
same,mutagenic call,"Test System: AMES SALMONELLA TYPHIMURIUM, Strain/Indicator: TA100, Metabolic Activation: RAT, LIVER, S-9, AROCLOR 1254 (30%), Method: PREINCUBATION",active; positive
same,mutagenic call,"Test System: AMES SALMONELLA TYPHIMURIUM, Strain/Indicator: TA100, Metabolic Activation: RAT, LIVER, S-9, AROCLOR 1254 OR PHENOBARBITOL, Method: STANDARD PLATE",active; positive
same,mutagenic call,"Test System: AMES SALMONELLA TYPHIMURIUM, Strain/Indicator: TA100, Metabolic Activation: RAT, LIVER, S-9, KC500 OR PHENOBARBITAL, Method: LIQUID SUSPENSION",active; positive
same,mutagenic call,"Test System: AMES SALMONELLA TYPHIMURIUM, Strain/Indicator: TA1535, Metabolic Activation: NONE, Method: STANDARD PLATE",inactive; negative
same,mutagenic call,"Test System: AMES SALMONELLA TYPHIMURIUM, Strain/Indicator: TA1535, Metabolic Activation: RAT, LIVER, S-9, AROCLOR 1254 OR PHENOBARBITOL, Method: STANDARD PLATE",inactive; negative
same,mutagenic call,"Test System: AMES SALMONELLA TYPHIMURIUM, Strain/Indicator: TA1537, Metabolic Activation: NONE, Method: STANDARD PLATE",active; positive
same,mutagenic call,"Test System: AMES SALMONELLA TYPHIMURIUM, Strain/Indicator: TA1537, Metabolic Activation: RAT, LIVER, S-9, AROCLOR 1254 OR PHENOBARBITOL, Method: STANDARD PLATE",active; positive
same,mutagenic call,"Test System: AMES SALMONELLA TYPHIMURIUM, Strain/Indicator: TA1537, Metabolic Activation: RAT, LIVER, S-9, KC500 OR PHENOBARBITAL, Method: LIQUID SUSPENSION",active; positive
same,mutagenic call,"Test System: AMES SALMONELLA TYPHIMURIUM, Strain/Indicator: TA1538, Metabolic Activation: NONE, Method: STANDARD PLATE",active; positive
same,mutagenic call,"Test System: AMES SALMONELLA TYPHIMURIUM, Strain/Indicator: TA1538, Metabolic Activation: RAT, LIVER, S-9, AROCLOR 1254 OR PHENOBARBITOL, Method: STANDARD PLATE",active; positive
same,mutagenic call,"Test System: AMES SALMONELLA TYPHIMURIUM, Strain/Indicator: TA1538, Metabolic Activation: RAT, LIVER, S-9, KC500 OR PHENOBARBITAL, Method: LIQUID SUSPENSION",active; positive
same,mutagenic call,"Test System: CHINESE HAMSTER OVARY, Strain/Indicator: CHO-K1-BH4 (HGPRT), Metabolic Activation: NONE, Method: SUSPENSION/PLATE",active; positive
same,mutagenic call,"Test System: MOUSE LYMPHOMA, Strain/Indicator: L5178Y (TK+/TK-), Metabolic Activation: NONE, Method: SUSPENSION/PLATE",active; positive
same,mutagenic call,"Test System: MOUSE LYMPHOMA, Strain/Indicator: L5178Y (TK+/TK-), Metabolic Activation: RAT, LIVER, S-9, AROCLOR 1254, Method: SUSPENSION/PLATE",active; positive
c1ccc(Oc2ccccc2)cc1,mutagenic call,"Test System: AMES SALMONELLA TYPHIMURIUM, Strain/Indicator: TA98, Metabolic Activation: HAMSTER, LIVER, S-9, AROCLOR 1254, Method: PREINCUBATION",inactive; negative
same,mutagenic call,[2],inactive; negative
same,mutagenic call,"Test System: AMES SALMONELLA TYPHIMURIUM, Strain/Indicator: TA98, Metabolic Activation: RAT, LIVER, S-9, AROCLOR 1254, Method: PREINCUBATION",inactive; negative
same,mutagenic call,"Test System: AMES SALMONELLA TYPHIMURIUM, Strain/Indicator: TA100, Metabolic Activation: HAMSTER, LIVER, S-9, AROCLOR 1254, Method: PREINCUBATION",inactive; negative
same,mutagenic call,[3],inactive; negative
same,mutagenic call,"Test System: AMES SALMONELLA TYPHIMURIUM, Strain/Indicator: TA100, Metabolic Activation: RAT, LIVER, S-9, AROCLOR 1254, Method: PREINCUBATION",inactive; negative
same,mutagenic call,"Test System: AMES SALMONELLA TYPHIMURIUM, Strain/Indicator: TA1535, Metabolic Activation: HAMSTER, LIVER, S-9, AROCLOR 1254, Method: PREINCUBATION",inactive; negative
same,mutagenic call,[4],inactive; negative
same,mutagenic call,"Test System: AMES SALMONELLA TYPHIMURIUM, Strain/Indicator: TA1535, Metabolic Activation: RAT, LIVER, S-9, AROCLOR 1254, Method: PREINCUBATION",inactive; negative
same,mutagenic call,"Test System: AMES SALMONELLA TYPHIMURIUM, Strain/Indicator: TA1537, Metabolic Activation: HAMSTER, LIVER, S-9, AROCLOR 1254, Method: PREINCUBATION",inactive; negative
same,mutagenic call,"Test System: AMES SALMONELLA TYPHIMURIUM, Strain/Indicator: TA1537, Metabolic Activation: NONE, Method: PREINCUBATION",inactive; negative
same,mutagenic call,"Test System: AMES SALMONELLA TYPHIMURIUM, Strain/Indicator: TA1537, Metabolic Activation: RAT, LIVER, S-9, AROCLOR 1254, Method: PREINCUBATION",inactive; negative
Clc1ccc2ccccc2c1,mutagenic call,"Test System: AMES SALMONELLA TYPHIMURIUM, Strain/Indicator: TA97, Metabolic Activation: HAMSTER, LIVER, S-9, AROCLOR 1254 (10 OR 30%), Method: PREINCUBATION",inactive; negative
same,mutagenic call,"Test System: AMES SALMONELLA TYPHIMURIUM, Strain/Indicator: TA97, Metabolic Activation: NONE, Method: PREINCUBATION",inactive; negative
same,mutagenic call,"Test System: AMES SALMONELLA TYPHIMURIUM, Strain/Indicator: TA97, Metabolic Activation: RAT, LIVER, S-9, AROCLOR 1254 (10 OR 30%), Method: PREINCUBATION",inactive; negative
same,mutagenic call,"Test System: AMES SALMONELLA TYPHIMURIUM, Strain/Indicator: TA98, Metabolic Activation: HAMSTER, LIVER, S-9, AROCLOR 1254 (10%), Method: PREINCUBATION",inactive; negative
same,mutagenic call,[1],inactive; negative
same,mutagenic call,[2],inactive; negative
same,mutagenic call,"Test System: AMES SALMONELLA TYPHIMURIUM, Strain/Indicator: TA98, Metabolic Activation: RAT, LIVER, S-9, AROCLOR 1254 (10 OR 30%), Method: PREINCUBATION",inactive; negative
same,mutagenic call,"Test System: AMES SALMONELLA TYPHIMURIUM, Strain/Indicator: TA100, Metabolic Activation: HAMSTER, LIVER, S-9, AROCLOR 1254 (10 OR 30%), Method: PREINCUBATION",inactive; negative
same,mutagenic call,[3],inactive; negative
same,mutagenic call,"Test System: AMES SALMONELLA TYPHIMURIUM, Strain/Indicator: TA100, Metabolic Activation: RAT, LIVER, S-9, AROCLOR 1254 (10 OR 30%), Method: PREINCUBATION",inactive; negative
same,mutagenic call,"Test System: AMES SALMONELLA TYPHIMURIUM, Strain/Indicator: TA1535, Metabolic Activation: HAMSTER, LIVER, S-9, AROCLOR 1254 (10 OR 30%), Method: PREINCUBATION",inactive; negative
same,mutagenic call,[4],inactive; negative
same,mutagenic call,"Test System: AMES SALMONELLA TYPHIMURIUM, Strain/Indicator: TA1535, Metabolic Activation: RAT, LIVER, S-9, AROCLOR 1254 (10 OR 30%), Method: PREINCUBATION",inactive; negative
O=c1c2cccc3ccc4cccc1c4c32,mutagenic call,"Test System: AMES SALMONELLA TYPHIMURIUM, Strain/Indicator: TA100, Metabolic Activation: RAT, LIVER, S-9, AROCLOR 1254, Method: STANDARD PLATE",active; positive
